Activity calls are given as the source filed them. No rule for the calls is given here.
System: Jurkat
Assay: Inhibition of TNF-alpha-induced necroptosis in FADD-deficient Jurkat T cells
Type: functional, cell-based
Parameters: concentration or dose not given beside the values
Conditions: for EC50: Jurkat

Row | Structure (SMILES) | Activity (Homo sapiens) | Activity | EC50 (Homo sapiens)
1 | COc1ccc(-n2c(SC)nc3scc(C)c3c2=O)cc1 | inactive | – | –
2 | CCOc1ccc(-n2c(SC)nc3sc(C)c(C)c3c2=O)cc1 | inactive | – | –
3 | COc1ccc(-n2c(SCC#N)nc3scc(C)c3c2=O)cc1 | inactive | – | –
4 | CCSc1nc2sc(C)c(C)c2c(=O)n1-c1ccc(OC)cc1 | inactive | – | –
5 | N#CCSc1nc2sc3c(c2c(=O)n1-c1ccc2c(c1)OCO2)CCC3 | – | 100% | 1180 nM
6 | COc1ccc(-n2c(SC)nc3sc(C)c(C)c3c2=O)cc1 | inactive | – | –
7 | N#CCSc1nc2sccc2c(=O)n1-c1ccccc1 | inactive | – | –
8 | CCN1CCc2sc3nc(SCC#N)n(-c4ccc(OC)cc4)c(=O)c3c2C1 | inactive | – | –
9 | CSc1nc2sc3c(c2c(=O)n1-c1ccc(Cl)cc1C)CCCC3 | inactive | – | –
10 | CSc1nc2sc3ccccc3c2c(=O)n1-c1ccc2c(c1)OCO2 | inactive | – | –
11 | N#CCSc1nc2sc3c(c2c(=O)n1-c1ccc(OCc2ccccc2)cc1)CCCC3 | inactive | – | –
12 | CSc1nc2sc3c(c2c(=O)n1-c1ccc(C)c(C)c1)CC(C)CC3 (stereo unspecified) | inactive | – | –
13 | CSc1nc2sc3c(c2c(=O)n1-c1ccc(Br)cc1)CCCC3 | inactive | – | –
14 | CCOc1ccc(-n2c(SCC#N)nc3sc4ccccc4c3c2=O)cc1 | inactive | – | –
15 | COc1ccc(-n2c(SC)nc3sc4c(c3c2=O)CC(C)CC4)cc1 (stereo unspecified) | inactive | – | –
16 | N#CCSc1nc2sc3c(c2c(=O)n1-c1ccc(F)cc1)CCCC3 | – | 85.1% | 240 nM
17 | N#CCSc1nc2sc3c(c2c(=O)n1-c1cccc(Cl)c1)CCCC3 | – | 66.9% | 5100 nM
18 | CCc1c(C)sc2nc(SC)n(-c3ccc(OC)cc3)c(=O)c12 | inactive | – | –
19 | N#CCSc1nc2sc3c(c2c(=O)n1-c1ccc(F)cc1)CCC3 | – | 88.7% | 890 nM
20 | COc1ccc(-n2c(SCC(C)O)nc3sc4c(c3c2=O)CCCC4)cc1 (stereo unspecified) | inactive | – | –
21 | COc1ccc(-n2c(SC)nc3sccc3c2=O)cc1 | inactive | – | –
22 | COc1ccc(-n2c(SCC(N)=O)nc3sc4c(c3c2=O)CCCC4)cc1 | inactive | – | –
23 | COc1ccc(-n2c(SC)nc3sc4c(c3c2=O)CCCCC4)cc1 | inactive | – | –
24 | O=c1c2c3c(sc2nc(SCc2ccccc2)n1-c1ccccc1)CCCC3 | inactive | – | –
25 | CCCSc1nc2sc3c(c2c(=O)n1-c1ccc(OC)cc1)CCCC3 | inactive | – | –

Row | Structure (SMILES) | Activity (Homo sapiens) | Activity | EC50 (Homo sapiens)
26 | N#CCSc1nc2sc3ccccc3c2c(=O)n1-c1ccc2c(c1)OCO2 | – | 100% | 270 nM
27 | N#CCSc1nc2sc3ccccc3c2c(=O)n1-c1ccc2c(c1)OCCO2 | – | 100% | 150 nM
28 | CSc1nc2sc(C)c(C)c2c(=O)n1-c1ccc(N(C)C)cc1 | inactive | – | –
29 | N#CCSc1nc2sc3c(c2c(=O)n1-c1ccc(Br)cc1)CCCC3 | inactive | – | –
30 | CSc1nc2sc(C)c(C)c2c(=O)n1-c1ccc2c(c1)OCO2 | – | 67% | 1110 nM
31 | COc1ccc(-n2c(SCc3ccccc3)nc3sc4c(c3c2=O)CCC4)cc1 | inactive | – | –
32 | CSc1cccc(-n2c(SC)nc3sc4c(c3c2=O)CCCC4)c1 | inactive | – | –
33 | CCCc1sc2nc(SC)n(-c3ccc(OC)cc3)c(=O)c2c1C | inactive | – | –
34 | N#CCSc1nc2sc3c(c2c(=O)n1-c1ccc(Cl)c(Cl)c1)CCCC3 | – | 39% | 5700 nM
35 | COc1cccc(-n2c(SCC#N)nc3sc4c(c3c2=O)CCCC4)c1 | – | 87.7% | 1460 nM
36 | COc1ccc(-n2c(SCc3ccccc3)nc3sc4c(c3c2=O)CCCC4)cc1 | inactive | – | –
37 | CCCc1sc2nc(SCCO)n(-c3ccc(OC)cc3)c(=O)c2c1C | inactive | – | –
38 | COc1ccc(-n2c(SCC(=O)Nc3ccccc3C(F)(F)F)nc3sc4c(c3c2=O)CCCC4)cc1 | inactive | – | –
39 | COc1ccc(-n2c(SCC#N)nc3c(c2=O)C2CCCCCC2S3)cc1 (stereo unspecified) | – | 83% | 960 nM
40 | COc1ccc(-n2c(SCC#N)nc3sc4c(c3c2=O)CN(C(C)C)CC4)cc1 | inactive | – | –
41 | COc1ccc(-n2c(SC[N+](=O)[O-])nc3sc4c(c3c2=O)CCCC4)cc1 | inactive | – | –
42 | CCCSc1nc2sc3c(c2c(=O)n1-c1ccc(OC)cc1)CCC3 | inactive | – | –
43 | COc1ccc(-n2c(SCCC#N)nc3sc4c(c3c2=O)CCCC4)cc1 | – | 70% | 5280 nM
44 | CCc1c(C)sc2nc(SCC#N)n(-c3ccc4c(c3)OCO4)c(=O)c12 | – | 100% | 1900 nM
45 | COc1ccc(-n2c(SCCC#N)nc3sc(C)c(C)c3c2=O)cc1 | inactive | – | –
46 | CCCCCCCCCCCCCCc1sc2nc(SCC#N)n(-c3ccc(OC)cc3)c(=O)c2c1C | inactive | – | –
47 | CSc1nc2sc3c(c2c(=O)n1-c1ccc(OC(F)(F)F)cc1)CCCC3 | inactive | – | –
48 | COc1ccc(-n2c(SC[N+](=O)[O-])nc3sc4c(c3c2=O)CCC4)cc1 | inactive | – | –
49 | COc1ccc(-n2c(SCc3ccc([N+](=O)[O-])cc3)nc3sc4c(c3c2=O)CCCC4)cc1 | inactive | – | –
